“And” between values parts separate entries of the source, which are not always exact repeats. Equal entries are not always repeated. Inconclusive results and toxic doses are left out.
System: Lymphosarcoma Mecca ip in C3AKF1 mice, survival T/C%
Assay: NCI In Vivo Anticancer Drug Screen. Data for tumor model Lymphosarcoma Mecca (intraperitoneal) in C3AKF1 (CHKRF1) mice
Settings: endpoint: survival time, mean or median, schedule: Q01DX010 (ip), vehicle: saline, higher = longer survival
Procedure: The antitumor activity of compounds was measured in mice bearing transplantable tumors. Survival or tumor size were measured and the results are expressed as the measurement made in the treated group (T) divided by the measurement made in the vehicle treated control group (C). The tumor model used in this assay is Lymphosarcoma Mecca (intraperitoneal) in C3AKF1 (CHKRF1) mice

Nc1nc(=S)c2ncn(C3OC(CO)C(O)C3O)c2[nH]1 (centres undefined)
T/C (dose: 1.0 mg/kg/injection): 115 % of control and 120 % of control
T/C (dose: 2.0 mg/kg/injection): 115 % of control
T/C (dose: 4.0 mg/kg/injection): 105 % of control and 115 % of control
T/C (dose: 8.0 mg/kg/injection): 90 % of control and 105 % of control

CN(C)/N=N/c1nc[nH]c1C(N)=O
T/C (dose: 400.0 mg/kg/injection): 155 % of control

N=[N+]=CC(=O)OCC(N)C(=O)O (centres undefined)
T/C (dose: 3.13 mg/kg/injection): 120 % of control and 124 % of control
T/C (dose: 6.25 mg/kg/injection): 100 % of control
T/C (dose: 12.5 mg/kg/injection): 116 % of control
T/C (dose: 25.0 mg/kg/injection): 105 % of control

C[C@@H]1C[C@@H]([C@H](O)CC2CC(=O)NC(=O)C2)C(=O)[C@@H](C)C1
T/C (dose: 5.0 mg/kg/injection): 109 % of control
T/C (dose: 10.0 mg/kg/injection): 100 % of control and 113 % of control
T/C (dose: 20.0 mg/kg/injection): 95 % of control

N#CCSc1ncnc2nc[nH]c12
T/C (dose: 15.0 mg/kg/injection): 95 % of control and 119 % of control
T/C (dose: 30.0 mg/kg/injection): 90 % of control and 95 % of control
T/C (dose: 60.0 mg/kg/injection): 90 % of control and 95 % of control
T/C (dose: 120.0 mg/kg/injection): 95 % of control

CN1CC[C@]23c4c5ccc(O)c4O[C@H]2C(=O)CC[C@H]3[C@H]1C5
T/C (dose: 4.0 mg/kg/injection): 88 % of control and 100 % of control
T/C (dose: 8.0 mg/kg/injection): 100 % of control and 111 % of control
T/C (dose: 16.0 mg/kg/injection): 105 % of control and 111 % of control
T/C (dose: 32.0 mg/kg/injection): 100 % of control and 116 % of control

COc1ccc2c(c1OC)C(=O)O[C@@H]2[C@H]1c2c(cc3c(c2OC)OCO3)CCN1C
T/C (dose: 31.3 mg/kg/injection): 100 % of control and 105 % of control
T/C (dose: 62.5 mg/kg/injection): 100 % of control and 116 % of control
T/C (dose: 125.0 mg/kg/injection): 100 % of control and 116 % of control
T/C (dose: 250.0 mg/kg/injection): 94 % of control and 100 % of control

From PubChem BioAssay AID304 (DTP/NCI, 2004)
